The text below walks through data of patent publication US9266922B2, “Antigen peptide and uses thereof” (priority 2011, dated 2016).

Like-named read-outs stand apart in the source and are kept apart here. Residues, ends and D or L forms follow the SMILES beside them.

In test [1] the target is T1, HLA-A*0201 (Homo sapiens, UniProt P04439, D140Y/D185E/D98H/E176V/E277Q/G131W/G231S/I119V/I121R/I166T/I218V/L300P/L318F/N151K/N90K/P208A/P217A/Q86G/Q94H/R138H/R169H/T345S). The test is described as follows: iTOPIA EDS MHC peptide binding assay. Particulars: HLA-A*0201 monomer, relative to positive control peptide, 21° C. for 18 h. An excerpt: MHC peptide binding assay using iTOPIA EDS
Microtiter 96 well plates containing HLA class I MHC monomer loaded with the human β2-microglobulin and a “placeholder” peptide were used to evaluate peptide binding, affinity, and off-rate.
The 502 nectin4 nonapeptides were first evaluated for their ability to bind to each MHC molecule in the peptide binding assay. In this assay, the placeholder peptides were stripped from the MHC class I monomer complexes coated on plastic, which leaves the MHC class I heavy chain available as a binding partner for candidate peptides in the presence of human β2-microglobulin.
Peptide binding was performed at 21° C. for 18 h. Revelation was done using an anti HLA-ABC-FITC mAb that binds to refolded MHC complex conformation. The relative fluorescent intensity was read using a fluorimeter (Molecular Devices, SpectraMax Gemini, Sunnyvale, Calif., USA).
Peptides with a binding>30% of the positive control peptide were selected as “binder” and subsequently analyzed for affinity (ED50) and off-rate (T1/2).

Test [2] addresses T2, HLA A*0201 on CEM.T2 cell line (Homo sapiens, UniProt P04439, D140Y/D185E/D98H/E176V/E277Q/G131W/G231S/I119V/I121R/I166T/I218V/L300P/L318F/N151K/N90K/P208A/P217A/Q86G/Q94H/R138H/R169H/T345S).
T2 construct: This cell line expresses HLA A*0201 but is deficient for TAP transporter; endogenous in cells; host or cells: CEM.T2 (T2) cell line
The test is described as follows: Cellular binding assay, HLA stabilization on CEM.T2 cells. The test is classed as cell-based. The conditions noted are these: for CEM.T2 % Binding: 100 μM peptide, 37° C. for 4 h, FACS anti HLA-A2, relative to HBV positive control peptide. How it is done:
The CEM.T2 cell line (T2) is defective in the processing of proteins for presentation by MHC class 1 molecules. This cell line expresses HLA A*0201 but is deficient for TAP transporter. T2 is classically used to assess the Peptide/HLA-A*0201 Complex Stability[H. W. Nijman et al., 1993]
For HLA-A2*0201 stabilization, T2 cells (2×10^5/well) were incubated in serum-free RPMI (Gibco®-France) with 100 μM of selected peptide, at 37° C. for 4 h. Cells were washed two times with PBS supplemented with 1% BSA and stained with fluorescein isothiocyanate-conjugated anti HLA-A2 (Clone BB7.2) (BD Bioscience Pharmingen-France-) at 4° C. for 45 min. After 3 washes, cells were fixed in PBS supplemented with 2% paraformaldehyde and analyzed by FACS (FACScan, BD Bioscience). The percentage of peptide binding was calculated as follows: % Binding={(MFI peptide sample−MFI Neg control)/(MFI Pos control−MFI Neg control)}×100
Negative control was done without peptide.

For test [3], the target named is T1, HLA-A*0201. As to the kind of experiment: biochemical. The test is classed as binding.
Test [4] addresses T1, HLA-A*0201. The test is described as follows: iScore calculation (iTOPIA system software). Particulars: multiparametric score of binding, off-rate and affinity.
The target in test [5] is T2, HLA A*0201 on CEM.T2 cell line. As to the kind of experiment: Cellular dissociation assay on CEM.T2 cells. The class given is cell-based. The conditions noted are these: after Brefeldin A 1 h and 3 h in serum-free RPMI at 37° C. (4 h). As to the method: Cellular Dissociation Assay
After HLA-A2*0201 stabilization with peptides at 37° C. for 4 h, T2 cells were incubated for 1 h, in serum-free RPMI containing Brefeldin A (10 μg/ml), an inhibitor of the transport of secretory and lysosomal proteins [G. J. Strous et al., 1993]. After 3 washes, T2 cells were incubated for 3 h in serum-free RPMI at 37° C. Binding was then measured by FACS and after 4 h incubation. Percentage of Residual Binding (% RB) was calculated as follows: […]

[6] abbreviates: peptide concentration giving 50% of optimal binding, 10^−4 to 10^−9 M, 21° C. for 18 h, read-out: Affinity (ED50).

Consider `CC(C)[C@H](NC(=O)[C@@H](NC(=O)[C@@H](NC(=O)[C@@H](NC(=O)[C@@H](NC(=O)[C@H](CC(=O)O)NC(=O)[C@H](CO)NC(=O)[C@@H](NC(=O)CN)[C@@H](C)O)C(C)C)C(C)C)[C@@H](C)O)C(C)C)C(=O)O` [Peptide 35] (H-GTSDVVTVV-OH; N-terminus and C-terminus assumed), for which the “% Binding” value at HLA-A*0201 [1] was found to be 63%. For the same compound, the “CEM.T2 % Binding” value in test [2] is 60%. Also, the EC50 on HLA-A*0201 [3] (setting [6]) was 300 nM. At HLA-A*0201 [4], the iScore is reported as 0.539. Further, the “CEM.T2 % Residual Binding” value in test [5] amounted to 0%.

Take `CC[C@H](C)[C@H](N)C(=O)N[C@@H](CC(C)C)C(=O)N[C@@H](Cc1c[nH]cn1)C(=O)N[C@H](C(=O)N[C@@H](CO)C(=O)N[C@@H](Cc1ccccc1)C(=O)N[C@@H](CC(C)C)C(=O)N[C@@H](C)C(=O)N[C@@H](CCC(=O)O)C(=O)O)C(C)C` [Peptide 239] (H-ILHVSFLAE-OH; N-terminus and C-terminus assumed): the “% Binding” value at HLA-A*0201 [1] was determined as 61%. Also, in test [2], the “CEM.T2 % Binding” value was 10%. Further, the EC50 at HLA-A*0201 [3] (setting [6]) was found to be 200 nM. In addition, on HLA-A*0201 [4], the iScore is 0.51. Moreover, in test [5], the “CEM.T2 % Residual Binding” value is recorded as 0%.

Regarding `CC(C)C[C@H](N)C(=O)N[C@H](C(=O)N[C@@H](CO)C(=O)N[C@@H](C)C(=O)N[C@@H](CO)C(=O)N[C@H](C(=O)N[C@H](C(=O)N[C@H](C(=O)N[C@H](C(=O)O)C(C)C)C(C)C)C(C)C)C(C)C)C(C)C` [Peptide 345] (H-LVSASVVVV-OH; N-terminus and C-terminus assumed), at HLA-A*0201 [1], the “% Binding” value is given as 51%. Besides, the “CEM.T2 % Binding” value in test [2] is 11%. Moreover, on HLA-A*0201 [3] (setting [6]), the EC50 turned out to be 60 nM. For the same compound, the iScore at HLA-A*0201 [4] is 0.626. The “CEM.T2 % Residual Binding” value in test [5] is recorded as 0%.

As to `CC(C)C[C@H](NC(=O)[C@H](Cc1c[nH]cn1)NC(=O)[C@H](Cc1ccccc1)NC(=O)[C@H](CCC(=O)O)NC(=O)[C@H](CO)NC(=O)[C@@H](NC(=O)[C@@H](NC(=O)[C@H](C)N)C(C)C)[C@@H](C)O)C(=O)N[C@H](C(=O)O)C(C)C` [Peptide 203] (H-AVTSEFHLV-OH; N-terminus and C-terminus assumed), the “% Binding” value at HLA-A*0201 [1] stood at 64%. In addition, the “CEM.T2 % Binding” value in test [2] was 48%. Further, the EC50 on HLA-A*0201 [3] (setting [6]) was 400 nM. In addition, on HLA-A*0201 [4], the iScore is given as 0.533. In addition, in test [5], the “CEM.T2 % Residual Binding” value was 0%.

As for `CC[C@H](C)[C@H](NC(=O)[C@H](Cc1c[nH]cn1)NC(=O)[C@H](Cc1c[nH]c2ccccc12)NC(=O)[C@H](CC(C)C)NC(=O)[C@H](CC(N)=O)NC(=O)[C@H](CCC(N)=O)NC(=O)[C@@H](N)CC(=O)O)C(=O)NCC(=O)N[C@@H](CCCNC(=N)N)C(=O)O` [Peptide 255], the “% Binding” value on HLA-A*0201 [1] turned out to be 62%. In test [2], the “CEM.T2 % Binding” value stood at 6%. Further, the EC50 at HLA-A*0201 [3] (setting [6]) turned out to be 500 nM. In addition, the iScore at HLA-A*0201 [4] is 0.539. Besides, the “CEM.T2 % Residual Binding” value in test [5] is listed as 0%.

For the compound `CC(C)C[C@H](NC(=O)[C@H](CCCNC(=N)N)NC(=O)[C@H](C)NC(=O)[C@H](CCC(N)=O)NC(=O)[C@@H](N)Cc1ccccc1)C(=O)N[C@@H](CCCNC(=N)N)C(=O)N[C@@H](CC(C)C)C(=O)N[C@@H](CCCNC(=N)N)C(=O)N[C@H](C(=O)O)C(C)C` [Peptide 137] (H-FQARLRLRV-OH; N-terminus and C-terminus assumed), the “% Binding” value on HLA-A*0201 [1] was found to be 69%. The “CEM.T2 % Binding” value in test [2] is 30%. For the same compound, on HLA-A*0201 [4], the iScore was 0.66. For the same compound, the “CEM.T2 % Residual Binding” value in test [5] came out at 72%.

In the case of `CC(C)C[C@H](NC(=O)[C@@H](NC(=O)[C@H](CO)NC(=O)[C@H](Cc1ccc(O)cc1)NC(=O)[C@H](CO)NC(=O)[C@@H](N)CCCNC(=N)N)[C@@H](C)O)C(=O)N[C@H](C(=O)N[C@H](C(=O)N[C@H](C(=O)O)C(C)C)[C@@H](C)O)[C@@H](C)O` [Peptide 443] (H-RSYSTLTTV-OH; N-terminus and C-terminus assumed), the “% Binding” value at HLA-A*0201 [1] is reported as 68%. The “CEM.T2 % Binding” value in test [2] is given as 37%. For the same compound, on HLA-A*0201 [3] (setting [6]), the EC50 amounted to 300 nM. On HLA-A*0201 [4], the iScore is listed as 0.521. For the same compound, the “CEM.T2 % Residual Binding” value in test [5] came out at 0%.

Regarding `CC(C)C[C@H](NC(=O)CNC(=O)[C@H](Cc1ccc(O)cc1)NC(=O)[C@H](CCCCN)NC(=O)[C@H](CO)NC(=O)[C@H](Cc1c[nH]cn1)NC(=O)[C@H](CC(C)C)NC(=O)[C@H](CC(C)C)NC(=O)[C@H](C)N)C(=O)O` [Peptide 80] (H-ALLHSKYGL-OH; N-terminus and C-terminus assumed), on HLA-A*0201 [1], the “% Binding” value is 87%. The EC50 at HLA-A*0201 [3] (FIG. 2A, peptide concentration 10^−4 to 10^−9 M, read-out: estimated dose to reach 50% maximal binding (ED50)) was roughly 100 nM; at HLA-A*0201 [3] (setting [6]) it was 1000 nM. For the same compound, the iScore on HLA-A*0201 [4] was 0.815.

In the case of `CC[C@H](C)[C@H](NC(=O)[C@@H](N)C(C)C)C(=O)N[C@@H](C)C(=O)N[C@@H](C)C(=O)N[C@@H](CC(C)C)C(=O)N[C@@H](CC(C)C)C(=O)N[C@@H](Cc1ccccc1)C(=O)N[C@@H](CS)C(=O)N[C@@H](CC(C)C)C(=O)O` [Peptide 355] (H-VIAALLFCL-OH; N-terminus and C-terminus assumed), the “% Binding” value at HLA-A*0201 [1] was determined as 59%. Besides, the “CEM.T2 % Binding” value in test [2] stood at 18%. Also, on HLA-A*0201 [3] (setting [6]), the EC50 was 30 nM. Further, the iScore on HLA-A*0201 [4] is 0.888. Also, in test [5], the “CEM.T2 % Residual Binding” value is given as 24%.

For the compound `CC[C@H](C)[C@H](NC(=O)[C@@H](NC(=O)CNC(=O)[C@@H](NC(=O)[C@@H](NC(=O)[C@@H](N)C(C)C)C(C)C)C(C)C)C(C)C)C(=O)N[C@@H](C)C(=O)N[C@@H](C)C(=O)N[C@@H](CC(C)C)C(=O)O` [Peptide 351, VVVGVIAAL] (H-VVVGVIAAL-OH; N-terminus and C-terminus assumed), the “% Binding” value at HLA-A*0201 [1] is listed as 58%. Moreover, the EC50 at HLA-A*0201 [3] (setting [6]) amounted to 30 nM. Also, on HLA-A*0201 [4], the iScore was 0.784.

`CSCC[C@H](NC(=O)[C@H](C)N)C(=O)N[C@@H](CC(C)C)C(=O)N[C@@H](CCCCN)C(=O)N[C@@H](CS)C(=O)N[C@@H](CC(C)C)C(=O)N[C@@H](CO)C(=O)N[C@@H](CCC(=O)O)C(=O)NCC(=O)O` [Peptide 266] (H-AMLKCLSEG-OH; N-terminus and C-terminus assumed): the “% Binding” value on HLA-A*0201 [1] worked out at 74%. In addition, the “CEM.T2 % Binding” value in test [2] was determined as 31%. On HLA-A*0201 [3] (setting [6]), the EC50 amounted to 700 nM. In addition, at HLA-A*0201 [4], the iScore is recorded as 0.667. In addition, the “CEM.T2 % Residual Binding” value in test [5] turned out to be 39%.

“122: nectin4 nonapeptide with a low iScore; the number represents where the peptide starts in the protein sequence (EGEYECRVS; UniProt Q96NY8 122-130, looked up, fragment) [Peptide 122]”: the “HLA-A*0201 class I level on T2 cells” value in test [2] (flow cytometry, FIG. 3A and 3B) is “does not increase HLA level on T2 cells”. In the test with HLA-A*0201 [4], the iScore entry is on record as “low”.
